Results as given in patent US10856562B2, “Flavor composition and edible compositions containing same” (MARS, INCORPORATED, priority 2013, dated 2020).
Square brackets hold non-standard residues; d marks the D form. Ends that are not written are not given here. pGlu = O=C1CC[C@@H](C(=O)O)N1

Tested on: panelists
Test: Consensus attribute scores of flavor enhancers in Uncle Ben's Garden Vegetable Ready rice
Assay type: in vivo, human
Parameters: key to Cooked White Rice / Vegetable Oil / Vegetable Complex / Cooked Green Vegetable / Cooked Corn / Sweet (BASIC TASTES) / Salt (BASIC TASTES) / Mouthdrying (Texture) / Residual Mouthcoating (Texture) / Total Aromatics / Bitter (BASIC TASTES): 15-point scale, 0 = none, 15 = very strong
Conditions: for Black Pepper / Cooked Corn / Cooked Green Vegetable / Cooked White Rice / Dehydrated onion/garlic / HVP/Brothy / Heat (Chemical Feeling Factors) / Mineral/Flint / Mouthdrying (Texture) / Residual Mouthcoating (Texture) / Salt (BASIC TASTES) / Sweet (BASIC TASTES) / Total Aromatics / Umami (Chemical Feeling Factors) / Vegetable Complex / Vegetable Oil: rice
Description: Descriptive attributes (e.g., taste, flavor and chemical feeling factors) of three use levels of pGlu-Cys (FE-35), pGlu-Cys-Gly (FE-36), pGlu-Cys-Cys (FE-37), pGlu-Cys-Val (FE-38) and pGlu-Val-Cys (UE-30) flavor composition peptides were determined. The three use levels were as follows: 1.0 ppb, 10.0 ppb and 100.0 ppb.
Data was collected for the attributes of the product in-mouth for the use levels according to the following protocol: • The samples were analyzed for flavor by six to nine members of a panel, trained and experienced in flavor evaluation using the Spectrum™ method. Samples were evaluated across multiple panel sessions. • The strength of each attribute was rated on a 15-point scale, where 0=none and 15=very strong. • This scale incorporates the ability to use tenths of a point and therefore has the potential of 150 scale differentiations. • The scale may be expanded beyond 15 points to include extreme ratings if necessary.
Preparation of Rice Samples • Each flavor enhancer was tested in Uncle Ben's Garden Vegetable Ready rice matrix at 3 different concentrations: 1 ppb, 10 ppb and 100 ppb. A total of 15 points with flavor enhancers were prepared for sensory evaluation. Additionally, 15 control samples were prepared. Each point had 2 samples (test and control) and was made from one pouch of rice. • Directions to prepare the solutions: • The 15 ready- to eat pouches were microwaved according to the procedure found on the back of the pouch: (1) squeeze pouch to separate rice, (2) tear two inches to vent, (3) heat on High for 90 seconds and (4) remove from microwave using COOL TOUCH area on untorn side. • From each pouch 124.75 g (test sample) and 99.8 g (control) were weighed out. The test sample had the flavor enhancer and/or salt. The control sample only had salt added. • The flavor enhancer and/or salt (non-iodized salt) were weighed in a soufflé cup. The weighed amount of flavor enhancer and/or salt was added to the sub-sampled rice. The rice was stirred and mixed to evenly distribute the salt added. • Some rice was placed back into the soufflé cup, sealed, and the cup was shook to get the flavor enhancer and/or salt that may have been stuck on the walls of the soufflé cup. After shaking the soufflé cup, the rice was added back to the original sub-sampled rice and stirred/mixed again. • Each sample (test and control) was microwaved for another 30 seconds (or until warm) to ensure that the salts/compounds were going completely into the solutions. • All samples (test and control) were tasted at the same temperature. • Each test sample had 0.2% NaCl added and flavor enhancers at the specified concentrations.
A summary of the concentrations of NaCl and flavor composition peptides in the rice samples is described in table 23. The first value of each cell represents a single sample amount of an ingredient in milligrams, and the second number in parenthesis is a doubling of the ingredient (in grams) for use in a doubled size sample.
The panelists evaluated each sample for the attributes described by table 25.

[pGlu]-Cys [FE-35]
Umami feeling factor in rice compared to the Control (10 & 100 ppb): higher
Salt in rice compared to the Control (100 ppb): saltier than the Control
Heat in rice, not seen in the Control (all concentrations): low level
Cooked green vegetable in rice compared to the Control (all samples (1, 10, 100 ppb)): low level of cooked green vegetable
Mouthdrying in rice, not seen in the Control (all samples (1, 10, 100 ppb)): low level
Total aromatics in rice (at 50 ppm): slightly lower
Black Pepper (1.0 ppb (5 ppm)): 1.0
Cooked Corn (1.0 ppb (5 ppm)): 0.5
Cooked Green Vegetable (1.0 ppb (5 ppm)): 0.5
Cooked White Rice (1.0 ppb (5 ppm)): 3.0
Dehydrated onion/garlic (1.0 ppb (5 ppm)): 0.8
HVP/Brothy (1.0 ppb (5 ppm)): 1.0
Heat (Chemical Feeling Factors) (1.0 ppb (5 ppm)): 0.8
Mineral/Flint (1.0 ppb (5 ppm)): 0.8
Mouthdrying (Texture) (1.0 ppb (5 ppm)): 1.5
Residual Mouthcoating (Texture) (1.0 ppb (5 ppm)): 1.0
Salt (BASIC TASTES) (1.0 ppb (5 ppm)): 13.0
Sweet (BASIC TASTES) (1.0 ppb (5 ppm)): 3.5
Total Aromatics (1.0 ppb (5 ppm)): 6.3
Umami (Chemical Feeling Factors) (1.0 ppb (5 ppm)): 1.0
Vegetable Complex (1.0 ppb (5 ppm)): 1.0
Vegetable Oil (1.0 ppb (5 ppm)): 0.5
Black Pepper (10.0 ppb (50 ppm)): 0.8
Cooked Corn (10.0 ppb (50 ppm)): 0.8
Cooked Green Vegetable (10.0 ppb (50 ppm)): 0.8
Cooked White Rice (10.0 ppb (50 ppm)): 3.0
Dehydrated onion/garlic (10.0 ppb (50 ppm)): 0.8
HVP/Brothy (10.0 ppb (50 ppm)): 1.0
Heat (Chemical Feeling Factors) (10.0 ppb (50 ppm)): 0.5
Mineral/Flint (10.0 ppb (50 ppm)): 1.3
Mouthdrying (Texture) (10.0 ppb (50 ppm)): 1.0
Residual Mouthcoating (Texture) (10.0 ppb (50 ppm)): 1.0
Salt (BASIC TASTES) (10.0 ppb (50 ppm)): 13.5
Sweet (BASIC TASTES) (10.0 ppb (50 ppm)): 3.5
Total Aromatics (10.0 ppb (50 ppm)): 6.0
Umami (Chemical Feeling Factors) (10.0 ppb (50 ppm)): 3.0
Vegetable Complex (10.0 ppb (50 ppm)): 1.3
Vegetable Oil (10.0 ppb (50 ppm)): 0.5
Black Pepper (100 ppb (50 ppm)): 1.0
Cooked Corn (100 ppb (50 ppm)): 0.8
Cooked Green Vegetable (100 ppb (50 ppm)): 0.8
Cooked White Rice (100 ppb (50 ppm)): 3.0
Dehydrated onion/garlic (100 ppb (50 ppm)): 1.0
HVP/Brothy (100 ppb (50 ppm)): 1.0
Heat (Chemical Feeling Factors) (100 ppb (50 ppm)): 0.5
Mineral/Flint (100 ppb (50 ppm)): 1.0
Mouthdrying (Texture) (100 ppb (50 ppm)): 1.0
Residual Mouthcoating (Texture) (100 ppb (50 ppm)): 1.0
Salt (BASIC TASTES) (100 ppb (50 ppm)): 15.0
Sweet (BASIC TASTES) (100 ppb (50 ppm)): 3.5
Total Aromatics (100 ppb (50 ppm)): 6.5
Umami (Chemical Feeling Factors) (100 ppb (50 ppm)): 4.0
Vegetable Complex (100 ppb (50 ppm)): 1.5
Vegetable Oil (100 ppb (50 ppm)): 0.8
